Data set [1] can be described thus: Toxicity in ip dosed rat. The data set is classed as organism-based. The settings on record: in vivo.
In data set [2] the test system is Rattus norvegicus. The experiment in a line: Induction of stereotyped gnawling behavior in rat assessed as time duration of behavior administered by gastric tube. It counts as functional, organism-based.
The test system of data set [3] is Rattus norvegicus. Put plainly: Induction of stereotyped gnawling behavior in rat assessed as time duration at 30 umol/kg, ip relative to control. The data set is classed as functional.
For data set [4], the system named is Rattus norvegicus. The experiment in a line: Induction of stereotyped gnawling behavior in rat assessed as time duration at 100 umol/kg, ip relative to control. It counts as functional.
Data set [5] has as its system Rattus norvegicus. The experiment in a line: Induction of stereotyped gnawling behavior in rat assessed as time duration at 200 umol/kg, ip relative to control. It counts as functional.
Data set [6] relates to Rattus norvegicus. The experiment in a line: Induction of stereotyped gnawling behavior in ip dosed rat assessed as time duration. The data set is classed as functional, organism-based.
For data set [7], the system named is Rattus norvegicus. The experiment in a line: Induction of turning behavior in rat at 50 to 200 umol/kg, ip. It counts as functional, organism-based.
For data set [8], the system named is Striatum. Put plainly: Induction of cAMP production in rat corpus striatum at 10 to 100 uM. It counts as functional, tissue-based. A general note: Cyclic AMP is a second messenger, typically raised through Gs and lowered through Gi signalling.
The subject of data set [9] is Rattus norvegicus. Put plainly: Induction of stereotyped gnawling behavior in ip dosed rat assessed as latency to peak score of stereotyped behavior. It counts as functional.
The subject of data set [10] is Liver. The experiment in a line: Prodrug conversion in rat liver at 0.4 mM after 60 mins. The data set is classed as ADME, tissue-based. The settings on record: 1 h, 400 µM.
For data set [11], the system named is Brain. Put plainly: Drug uptake in ip dosed mouse brain. It counts as ADME, organism-based. The following applies: in vivo.
The subject of data set [12] is Striatum. The experiment in a line: Induction of cAMP production in rat corpus striatum at 10 to 100 uM in presence of rat liver. The data set is classed as functional, tissue-based.

Active and inactive are the calls of the source. The rule behind the calls is not given here. Some results are limits rather than exact numbers.

`CC(=O)Oc1ccc2c(c1OC(C)=O)-c1cccc3c1[C@@H](C2)N(C)CC3`: in [1], the MTD was < 300 mg/kg. Moreover, the outcome in data set [2] and in [8] was inactive. For the same compound, the Time in data set [3] worked out at 2.1 h; in [4], 2.3 h; in data set [5] it was 2.7 h. The result in data set [6] and in [7] was Active.
For `CCC(=O)Oc1ccc2c(c1OC(=O)CC)-c1cccc3c1[C@@H](C2)N(C)CC3.Cl`, the MTD in data set [1] was < 300 mg/kg. The outcome in data set [2], in data set [6] and in [8] was inactive. Also, the Time came out at 1.6 h in data set [3], 1.9 h in data set [4], 2.9 h in [5] and 41 min in [9]. In [7], the outcome was Active.
`CN1CCc2cccc3c2[C@H]1Cc1ccc(OC(=O)C(C)(C)C)c(OC(=O)C(C)(C)C)c1-3.Cl`: in [1], the MTD is < 300 mg/kg. In addition, the outcome in [2] and in data set [8] was inactive. Moreover, the Time came to 3.1 h in data set [3], 5.1 h in data set [4] and 7.8 h in data set [5]. Also, the Activity entry in data set [6] is “Dose-dependent effect”. Besides, the outcome in data set [7] was Active.
Consider `CN1CCc2cccc3c2[C@H]1Cc1ccc(O)c(O)c1-3.CN1CCc2cccc3c2[C@H]1Cc1ccc(O)c(O)c1-3.Cl.Cl.O` [APOMORPHINE HYDROCHLORIDE], for which the MTD in data set [1] is < 300 mg/kg. In addition, the outcome in data set [2] was inactive. Also, the Time in data set [3] came out at 1.6 h; in data set [4], 1.9 h; in data set [5] it was 2.6 h; in data set [9], 26 min. Besides, in data set [7], the outcome was Active.
`CN1CCc2cccc3c2[C@H]1Cc1ccc(OC(=O)c2ccccc2)c(OC(=O)c2ccccc2)c1-3`: the MTD in data set [1] was < 300 mg/kg. The outcome in [2] and in [8] was inactive. In addition, the Time in [3] amounted to 3.8 h; in [4], 6.3 h; in data set [5], 10.8 h; in data set [9], 83 min. In data set [6], the Activity result is “Dose-dependent effect”. For the same compound, the result in data set [7] was Active. The Drug metabolism in [10] is recorded as 9%. Further, the Drug uptake entry in data set [11] is “Active”.
As for `CC(C)C(=O)Oc1ccc2c(c1OC(=O)C(C)C)-c1cccc3c1[C@@H](C2)N(C)CC3.Cl`, in data set [1], the MTD is < 300 mg/kg. Besides, the outcome in data set [2] and in [8] was inactive. Moreover, the Time amounted to 2.5 h in data set [3], 3.3 h in [4] and 4.9 h in [5]. The Activity result in [6] was “Dose-dependent effect”. Moreover, the outcome in [7] and in data set [12] was Active. Moreover, the Drug metabolism in data set [10] is on record as 55%. In addition, the Drug uptake entry in data set [11] is recorded as “Active”.

The record behind these values is ChEMBL document CHEMBL3272152, “Diester derivatives as apomorphine prodrugs” (J Med Chem, 1976).
